Source: patent publication US20240316136A1, “ANESTHETIC METHOD OF SPOTTED SEABASS WITH PLANT ESSENTIAL OILS” (Shanghai Ocean University, priority 2024, published 2024)

Columns and labels:
Type in all cases: in vivo, Lateolabrax maculatus
spotted seabass [1] = assay: Sedation, anesthesia induction and resuscitation time of spotted seabass in anesthetic bath; parameters: key to Stage IV (deep anesthesia) time / Resuscitation time / Stage I (light sedation) time / Stage II (deep sedation) time / Stage III (light anesthesia) time: —: No anesthetic effect
Protocol: • 1. Healthy spotted seabass with uniform sizes and uniform respiration rates were selected and acclimated for 24 h. During the acclimatization period, the water temperature was 22±1° C., the salinity was 16%, the dissolved oxygen was 6 mg/L, pH was 7.5, and the fish-water ratio was 1:50. The metabolic wastes of the spotted seabass were discharged during acclimatization period. • 2. The emulsified Cinnamomum camphora essential oils were added to the aquariums respectively. The water temperature was controlled at 22±1° C. […] The spotted seabass were transferred to aquariums (5 fish per aquarium) with different concentrations of the Cinnamomum camphora essential oil, MS-222 and linalool anesthetics, and anesthetic concentrations, sedation concentrations and duration of anesthesia were recorded for the spotted seabass. • 4. The fish were extracted once deep anesthesia was achieved. Recovery was defined as the restoration of fish to their typical swimming behavior; the resuscitation time of the spotted seabass were recorded. • 5. The optimal concentration range was obtained, and oxidative stress and tissue injury were measured. [table] One-way analysis of variance (ANOVA) was used to evaluate the data (anesthetic induction and recovery time) using SPSS 26.0 software (SPSS Inc., Chicago, IL, USA). The significant variation was determined using Duncan's multiple range test (P<0.05). Graphs were created using Origin software.

spotted seabass [2] = assay: Energy metabolism indexes (glucose, lactic acid); settings: after anesthesia; comparison between anesthetic groups, P<0.05
Protocol: (§1) In accordance with the principles and guiding regulations established by the Animal Protection and Utilization Committee of Shanghai Ocean University (SHOU-DW-2022-059), 200 mg/L MS-222 was used to anesthetize fish. Venous-arterial blood samples were obtained from the caudal vein using a 1 mL syringe with 10% EDTA as an anticoagulant and then preserved in anticoagulation tubes. In addition, another portion of the blood was collected without anticoagulant, then kept at 4° C. for a duration of 12 hours for stationary. The coagulated blood was centrifuged at 4000×g for 20 min at 4° C. The serum was extracted and placed in the refrigerator at −40° C. for testing.
(§2) Acid phosphatase (ACP), glucose (GLU) and lactic acid (LD) kits (Nanjing Jiancheng Bioengineering Institute, Nanjing, China) were used to measure ACP, GLU and LD levels.

spotted seabass [3] = assay: Blood biochemical analysis (RBC, HCT, HGB)
Protocol: as §1
Red blood cell count (RBC), haematocrit (HCT), and hemoglobin (HGB) in blood samples were measured in a Myriad Veterinary Automatic Blood Cell Analyser (BC-2800vet, Shenzhen, China).

spotted seabass [4] = assay: Immunological indicators (ACP/AKP, IgM, LZM) in serum
Protocol: as §1, §2
Lysozyme (LZM) activity was determined by the method of De Souza et al. Serum immunoglobulin M (IgM) concentration was measured using a fish ELISA kit (Nanjing Jiancheng Bioengineering Institute, Nanjing, China).

spotted seabass [5] = assay: Oxidative stress indicators (SOD, CAT, GSH-Px) in blood
Protocol: as §1
Superoxide Dismutase (SOD), Catalase (CAT) and Glutathione Peroxidase (GSH-Px) kits (Nanjing Jiancheng Bioengineering Institute, Nanjing, China) were used to determine SOD, CAT and GSH-Px activities in blood.

[6] = tested on: spotted seabass gill tissue; assay: Gill tissue histopathology by light microscope after anesthesia
Protocol: • 1. Healthy spotted seabass with uniform sizes and uniform respiration rates were selected and acclimated for 24 h. During the acclimatization period, the water temperature was 22±1° C., the salinity was 16%, the dissolved oxygen was 6 mg/L, pH was 7.5, and the fish-water ratio was 1:50. The metabolic wastes of the spotted seabass were discharged during acclimatization period. • 2. The emulsified Cinnamomum camphora essential oils were added to the aquariums respectively. The water temperature was controlled at 22±1° C. The concentrations of the emulsified Cinnamomum camphora essential oil were 10, 20, 30, 50, 100, 150, 200 mg/L, respectively, and the same concentrations of MS-222 anesthesia solution and linalool solution were prepared at the same time. • 3. The spotted seabass were transferred to aquariums (5 fish per aquarium) with different concentrations of the Cinnamomum camphora essential oil, MS-222 and linalool anesthetics, and anesthetic concentrations, sedation concentrations and duration of anesthesia were recorded for the spotted seabass. • 4. The fish were extracted once deep anesthesia was achieved. Recovery was defined as the restoration of fish to their typical swimming behavior; the resuscitation time of the spotted seabass were recorded. • 5. The optimal concentration range was obtained, and oxidative stress and tissue injury were measured. […]

[7] = after 24 h of recovery, vs initial values, p<0.05
[8] = after 24 h of recovery, vs initial

## CCOC(=O)c1cccc(N)c1.CS(=O)(=O)O [MS-222, tricaine methanesulfonate]
Spotted seabass [1]; 5 mg/L in water
  Resuscitation time: —
  Stage I (light sedation) time: —
  Stage II (deep sedation) time: —
  Stage III (light anesthesia) time: —
  Stage IV (deep anesthesia) time: —
Spotted seabass [1]; 10 mg/L in water
  Resuscitation time: —
  Stage I (light sedation) time: 90.67 ± 2.08 s
  Stage II (deep sedation) time: —
  Stage III (light anesthesia) time: —
  Stage IV (deep anesthesia) time: —
Spotted seabass [1]; 20 mg/L in water
  Resuscitation time: —
  Stage I (light sedation) time: 73.67 ± 5.86 s
  Stage II (deep sedation) time: 111.67 ± 2.08 s
  Stage III (light anesthesia) time: —
  Stage IV (deep anesthesia) time: —
Spotted seabass [1]; 30 mg/L in water
  Resuscitation time: —
  Stage I (light sedation) time: 59.00 ± 3.00 s
  Stage II (deep sedation) time: 102.33 ± 2.52 s
  Stage III (light anesthesia) time: 122.67 ± 2.52 s
  Stage IV (deep anesthesia) time: —
Spotted seabass [1]; 50 mg/L in water
  Resuscitation time: 217.00 ± 2.00 s
  Stage I (light sedation) time: 39.67 ± 2.52 s
  Stage II (deep sedation) time: 64.00 ± 3.61 s
  Stage III (light anesthesia) time: 83.00 ± 3.00 s
  Stage IV (deep anesthesia) time: 185.00 ± 4.36 s
Spotted seabass [1]; 100 mg/L in water
  Resuscitation time: 240.00 ± 2.00 s
  Stage I (light sedation) time: 30.00 ± 3.00 s
  Stage II (deep sedation) time: 41.00 ± 4.58 s
  Stage III (light anesthesia) time: 70.67 ± 4.04 s
  Stage IV (deep anesthesia) time: 174.00 ± 4.58 s
Spotted seabass [1]; 150 mg/L in water
  Resuscitation time: 290.33 ± 3.06 s
  Stage I (light sedation) time: 20.67 ± 2.52 s
  Stage II (deep sedation) time: 35.00 ± 2.00 s
  Stage III (light anesthesia) time: 63.00 ± 3.61 s
  Stage IV (deep anesthesia) time: 147.67 ± 2.52 s
Spotted seabass [1]; 200 mg/L in water
  Resuscitation time: 349.33 ± 3.06 s
  Stage I (light sedation) time: 19.67 ± 2.52 s
  Stage II (deep sedation) time: 29.67 ± 2.52 s
  Stage III (light anesthesia) time: 55.33 ± 2.08 s
  Stage IV (deep anesthesia) time: 140.33 ± 2.08 s
Spotted seabass [1]; criterion: induction in around 3 min and recovery within 5 min
  Optimal anesthetic concentration: 100 mg/L
Spotted seabass [1]; in vivo
  Concentration showing deep sedation: 20 mg/L
  Concentration showing light anesthesia effect (Stage III): 30 mg/L
  Concentration showing light sedation effect (Stage I): 10 mg/L
Spotted seabass [1]; in vivo, iv
  Minimum concentration required to achieve profound anesthesia (Stage IV): 50 mg/L
Spotted seabass [2]
  Glucose concentration: Greater
Spotted seabass [3]; [7]
  Percentage of hematocrit: lower
  Red blood cell count (RBC): higher
Spotted seabass [3]; after deep anesthesia, comparison between anesthetic groups, p<0.05
  Percentage of hematocrit: higher
Spotted seabass [3]; in vivo
  Hemoglobin concentration: higher
  Red blood cell count (RBC): higher
Spotted seabass [4]; after anesthesia
  IgM concentration: decreased
Spotted seabass [4]; after anesthesia, change from initial
  LZM activity: decreased
Spotted seabass [4]; on exposure to anesthetic
  AKP activity: increased
Spotted seabass [5]; [8]
  CAT activity: recovered to the initial values
  SOD activity: recovered to the initial values
Spotted seabass [5]; after anesthesia
  SOD, CAT and GSH-Px activities: increasing trend
[6]
  Gill tissue histopathological changes: chloride cells underwent significant proliferation
